Data set [1] relates to T. ni moths. The data set can be described thus: Oviposition choice (deterrence) bioassay on cabbage leaves. The format is in vivo, Trichoplusia ni. The note with it: for pest or weed control at 0.25 %: Trichoplusia, 48 h, read-out: OD (%) Mean ± SE N = 35-40.
The subject of data set [2] is third instar T. ni larvae. The data set can be described thus: whole plant or invertebrate. The note with it: for mortality at 0.25 %: Trichoplusia, topical, 24 h. How it is done:
(§1) Initial screening for feeding deterrent effects was conducted at 50 μg/cm^2 in feeding deterrent bioassays.
Mortality was determined 24 h after spraying larvae directly with test solutions. Third instar T. ni larvae were sprayed in 90 mm×15 mm Petri dishes (Falcon) lined with Fisher Scientific filter paper (90 mm diameter). Small plastic hand spraying bottles (50 mL capacity) were used. Larvae were then transferred to Petri dishes (90 mm×15 mm) with a small piece of artificial diet. Each Petri dish contained 10 larvae. Three replicates, each consisting of 10 larvae, were used per treatment.

Data set [3] relates to third instar T. ni larvae. The data set can be described thus: Leaf disk choice feeding deterrence bioassay. Type of data set: in vivo, Trichoplusia ni. The note with it: for pest or weed control at 50 µg/cm2, 50 µg/cm2 / pest or weed control at 50 µg/cm2: Trichoplusia, foliar; for pest or weed control at 50 µg/cm2: read-out: % deterrence; for DC50: feeding deterrence DC50, unit not given in Table 12.
Text: Cabbage plants (Brassica oleraceae var. Stonehead) used in the bioassays were routinely grown in plastic pots with a mixture of sandy loam soil and peat moss (4:1) in a greenhouse at the University of British Columbia, Vancouver, BC, Canada. Leaves were collected from cabbage plants that were 5-6 weeks old.
T. ni larvae and moths were obtained from a long established colony (>50 generations) maintained on an artificial diet, Velvetbean Caterpillar Diet No. F9796 [Bio-Sery Inc. (Frenchtown, NIL)] in the insectary of the University of British Columbia (UBC).
as §1
Larvae were given the choice of feeding on two leaf disks, one treated with 10 μL of a solution of the test substance painted on each side and the other treated with a carrier solvent alone. The number of larvae was 25 per treatment.
Feeding deterrence data (percent) for initial screening concentration were analyzed by analysis of variance (ANOVA) after arcsin transformation using statistics software (Statistix 7. Analytical Software, Statistix 7 for Windows 95, 98, NT, 2000. Analytical Software, Tallahassee).

The subject of data set [4] is T. ni moths. The data set can be described thus: Oviposition choice (deterrence) bioassay on cabbage leaves. The note with it: for % deterrence / Index = deterrence/mortality: Table 11; for % deterrence: BL mark not explained; for Index = deterrence/mortality: oviposition deterrence divided by mortality. Type of data set: in vivo, Trichoplusia ni. Here is the method:
as §1
T. ni larvae were reared on normal diet from neonates (<24 h old) until pupation. Pupae were sexed and put in separate plastic containers until emergence. After eclosion, pairs of moths (one male and one female) were introduced into each cage with a control and a treated cabbage leaf. Pairs of moths (n=25) were used per treatment. Each leaf (approximately 100-110 cm^2) was sprayed with 0.5 mL of MeOH or a methanolic solution of the test chemical on each side. Eggs were counted on each cabbage leaf after 48 h.

The mark [5] stands for this setting: read-out: Mortality (%) N = 3 × 10, Table 8, at 0.25%.
Where [6] appears, read: contact toxicity to larvae, negative or zero values replaced by 0.1 for the index (footnote b).
Setting [7] is: Table 8, 50 μg/cm^2, read-out: F.D (%) Mean ± SE N = 25.
Setting [8] is: feeding deterrence (FD), Table 12, non-toxic feeding deterrents.
Where [9] appears, read: oviposition deterrence at 0.25%.
[10] abbreviates: Table 7, second lots and purified isomers, at 0.25%.
[11] abbreviates: Table 7, second lots and purified isomers, 50 μg/cm^2, read-out: F.D (%) Mean ± SE N = 25.
Where [12] appears, read: read-out: Mortality (%) N = 3 × 10, Table 10, at 0.25%.

As usually defined, the mortality is the share of the test organisms that died.

Where two headings read alike, the source gives them in different places. Bounds are passed on as bounds.

On to `CCCOc1cccc(OCCC(C)C)c1` [3b{3, 5}, 3-propoxy-1-isopentoxybenzene], for which the pest or weed control at 0.25 % in data set [1] (Table 8, at 0.25%) amounted to 9 ± 17%. In addition, the mortality at 0.25 % in data set [2] (setting [5]) came to 10%. Further, in data set [2] (setting [6]), the “% mortality” value is given as 10%. In data set [3] (setting [7]), the pest or weed control at 50 µg/cm2, 50 µg/cm2 stood at 97 ± 3%. Also, the pest or weed control at 50 µg/cm2 in data set [3] (setting [8]) was found to be 97%. The molecule also came in with a DC50 in data set [3] of 17 μg/cm^2.
In the case of `CCCOc1ccc(OCC)cc1` [3c{2, 3}, 4-ethoxy-1-propoxybenzene], the pest or weed control at 0.25 % in data set [1] (Table 8, at 0.25%) worked out at 10 ± 13%. For the same molecule, the mortality at 0.25 % in data set [2] (setting [5]) amounted to 17%. Besides, in data set [2] (setting [6]), the “% mortality” value was 17%. Also, in data set [3] (setting [7]), the pest or weed control at 50 µg/cm2, 50 µg/cm2 was found to be 100%. The pest or weed control at 50 µg/cm2 in data set [3] (setting [8]) came to 100%. Further, the DC50 in data set [3] was found to be 33 μg/cm^2.
`C=CCOc1cccc(OCC=C)c1` [3b{6, 6}, 1,3-Diallyloxy benzene]: the pest or weed control at 0.25 % in data set [1] (Table 8, at 0.25%) was 25 to 30%. Further, the mortality at 0.25 % in data set [2] (setting [5]) came to 13%. In addition, the “% mortality” value in data set [2] (setting [6]) was 13%. Further, in data set [3] (setting [7]), the pest or weed control at 50 µg/cm2, 50 µg/cm2 was 97 ± 3%. For the same molecule, the pest or weed control at 50 µg/cm2 in data set [3] (setting [8]) came out at 97%. Moreover, the DC50 in data set [3] stood at 20 μg/cm^2.
As to `C=CCOc1ccccc1OCCCC` [3a{4, 6}, 1-allyloxy-2-butoxybenzene], in data set [1] (Table 8, at 0.25%), the pest or weed control at 0.25 % was 35 ± 17%. Also, in data set [2] (setting [5]), the mortality at 0.25 % was 19%. Further, the “% mortality” value in data set [2] (setting [6]) was 19%. Moreover, the pest or weed control at 50 µg/cm2, 50 µg/cm2 in data set [3] (setting [7]) was 92 ± 6%. For the same molecule, the pest or weed control at 50 µg/cm2 in data set [3] (setting [8]) was determined as 92%. In data set [3], the DC50 is given as 17 μg/cm^2. Moreover, in data set [4] (setting [9]), the “% deterrence” value stood at 35 BL %. The “Index = deterrence/mortality” value in data set [4] is 1.8.
`C=CCOc1ccc(OCC)cc1` [3c{2, 6}, 1-allyloxy-4-ethoxybenzene]: the pest or weed control at 0.25 % in data set [1] (Table 8, at 0.25%) is less than 30%. Moreover, in data set [2] (setting [5]), the mortality at 0.25 % stood at 6.7%. For the same molecule, the pest or weed control at 50 µg/cm2, 50 µg/cm2 in data set [3] (setting [7]) turned out to be 73 ± 12%.
Regarding `C=CCc1c(OC)cccc1OCCC` [5b{3, 1} y (100% y), 1-methoxy-2-allyl-3-propoxy-benzene], the pest or weed control at 0.25 % in data set [1] (setting [10]) came out at 17 ± 14%. Also, the pest or weed control at 50 µg/cm2, 50 µg/cm2 in data set [3] (setting [11]) was found to be 100%.
As for `C=CCOc1ccccc1OCCC(C)C` [3a{5, 6}, 1-allyloxy-2-isopentoxybenzene], the pest or weed control at 0.25 % in data set [1] (Table 8, at 0.25%) is 26 ± 13.5%.
Take `C=CCc1cc(OCCC)ccc1OC` [5c{3, 1}, 1-methoxy-2-allyl-4-propoxy-benzene]: the pest or weed control at 0.25 % in data set [1] (Table 10, at 0.25%) came out at 7 ± 15%. In addition, the mortality at 0.25 % in data set [2] (setting [12]) stood at 6.4%. The “% mortality” value in data set [2] (setting [6]) is reported as 6%. For the same molecule, in data set [3] (Table 10, 50 μg/cm^2, read-out: F.D (%) Mean ± SE N = 25), the pest or weed control at 50 µg/cm2, 50 µg/cm2 came out at 92 ± 6%. For the same molecule, the pest or weed control at 50 µg/cm2 in data set [3] (setting [8]) was found to be 92%. The same molecule yielded a DC50 in data set [3] of 9 μg/cm^2.
On to `CCCCOc1ccccc1OCCC` [3a{3, 4}, 1-propoxy-2-butoxybenzene], for which, in data set [1] (Table 8, at 0.25%), the pest or weed control at 0.25 % was 37 ± 14%. Moreover, in data set [2] (setting [5]), the mortality at 0.25 % is 19%. Moreover, the “% mortality” value in data set [2] (setting [6]) came to 19%. The pest or weed control at 50 µg/cm2, 50 µg/cm2 in data set [3] (setting [7]) worked out at 98 ± 2%. The pest or weed control at 50 µg/cm2 in data set [3] (setting [8]) came out at 98%. Besides, in data set [3], the DC50 was 21 μg/cm^2. Moreover, the “% deterrence” value in data set [4] (setting [9]) was found to be 37 BL %. In addition, the “Index = deterrence/mortality” value in data set [4] came out at 1.9.
With `COc1cccc(OCCC(C)C)c1` [3b{1, 5}, 1-methoxy-3-(3-methyl-butyloxy)benzene], the pest or weed control at 0.25 % in data set [1] (Table 8, at 0.25%) was in the range of 25 to 30%. In addition, the mortality at 0.25 % in data set [2] (setting [5]) came out at 30%. Besides, the pest or weed control at 50 µg/cm2, 50 µg/cm2 in data set [3] (setting [7]) was 89 ± 7%.
Take `C=CCOc1cccc(OC)c1` [3b{1, 6}, 1-allyloxy-3-methoxybenzene]: the pest or weed control at 0.25 % in data set [1] (Table 8, at 0.25%) was 9 ± 14%. Moreover, the mortality at 0.25 % in data set [2] (setting [5]) turned out to be 33%. Moreover, in data set [3] (setting [7]), the pest or weed control at 50 µg/cm2, 50 µg/cm2 was found to be 66 ± 12%.
Consider `C=CCc1cc(OC)ccc1OC` [5c{1, 1}, 1,4-dimethoxy-2-allyl-benzene], for which the pest or weed control at 0.25 % in data set [1] turned out to be 14 ± 12%. Also, the mortality at 0.25 % in data set [2] (setting [12]) stood at 38.9%. Besides, the “% mortality” value in data set [2] (in vivo) is 39%. Also, in data set [3], the pest or weed control at 50 µg/cm2 is 80% and the DC50 amounted to 20 μg/cm^2. The pest or weed control at 50 µg/cm2, 50 µg/cm2 in data set [3] (read-out: F.D (%) Mean ± SE N = 25) was determined as 80 ± 11%.
With `CCN(CC)C(=O)c1cccc(C)c1` [DEET, reference compound], the “OD (%) Mean ± SE N = 35-40” value in data set [1] (Table 8, at 0.25%) is given as 23 ± 14%. Further, the “Mortality (%) N = 3 × 10” value in data set [2] (Table 8, at 0.25%) worked out at 7%. Moreover, the “F.D (%) Mean ± SE N = 25” value in data set [3] (Table 8, 50 μg/cm^2) is on record as 60 ± 15 ^AB %.
In the case of `C=CCOc1cccc(OCCC(C)C)c1` [3b{5, 6}, 1-allyloxy-3-isopentoxybenzene], the pest or weed control at 0.25 % in data set [1] (Table 8, at 0.25%) worked out at 10 ± 13%.
Take `C=CCOc1ccc(OCCC(C)C)cc1` [3c{5, 6}, 1-allyloxy-4-isopentoxybenzene]: the pest or weed control at 0.25 % is -25 ± 12% in data set [1] (Table 8, at 0.25%) and 18.8 ± 14.3% in data set [4] (Trichoplusia, 48 h, Table 3, oviposition deterrence at 0.25%, 48 h, read-out: OD (%), mean ± SE (n = 25-33)). Also, in data set [2] (read-out: mortality (%) (n = 3 × 10), Table 3, at 0.25%), the mortality at 0.25 % turned out to be 7%. In addition, the pest or weed control at 50 µg/cm2, 50 µg/cm2 in data set [3] (Table 3, 1,4-dialkoxybenzenes, feeding deterrence at 50 μg/cm^2, read-out: FD (%), mean ± SE (n = 25)) came out at 75.1 ± 12.7%.
Take `C=CCc1c(OCC)cccc1OCCC` [5b{3, 2} y (100% y), 1-ethoxy-2-allyl-3-propoxy-benzene]: the pest or weed control at 0.25 % in data set [1] (setting [10]) is -6.4 ± 11.4%. In addition, the mortality at 0.25 % in data set [2] (read-out: Mortality (%) N = 3 × 10, Table 7, second lots and purified isomers, at 0.25%) worked out at 0%. In data set [3] (setting [11]), the pest or weed control at 50 µg/cm2, 50 µg/cm2 is 74 ± 14%.
